The record followed here is paper PMC7897990, “TriTOX: A novel Trichomonas vaginalis assay platform for high-throughput screening of compound libraries” (International Journal for Parasitology: Drugs and Drug …, 2021).

Where two headings read alike, the source gives them in different places.

Data set [1] relates to Trichomonas vaginalis G3 trophozoites. The experiment in a line: microbe, parasite or virus in culture. The following applies: 48 h.
Data set [2] has as its system nontumorigenic neonatal foreskin fibroblast (NFF) cell line.
Data set [3] has as its system Trichomonas vaginalis G3 trophozoites. The following applies: HTS, parasite screen at 1 µg/mL; for T.vaginalis_Absorbance_Rep1: replicate 1, raw absorbance; for T.vaginalis_Absorbance_Rep2: replicate 2, raw absorbance.
The mark [4] stands for this setting: read-out: T.vaginalis_%inb_Rep1.
[5] abbreviates: read-out: T.vaginalis_%inb_Rep2.
[6] abbreviates: NFF fibroblasts, single concentration 5 µg/mL.

In the case of `CC[C@H]1CC2CN3CCc4c([nH]c5ccc(OC)cc45)[C@](C(=O)OC)(C2)[C@H]13` (stereo in doubt) [Voacangine], the inhibition of growth at 1 µg/mL in data set [1] (setting [4]) was determined as 9.91%; in data set [1] (setting [5]), 13.7%. For the same compound, the NFF_Activity result in data set [2] (NFF fibroblast screen at 5 µg/mL, A = active, I = inactive) is “I (otherwise these were reported as inactive (I))”.
Consider `C[C@H]1c2cccc(O)c2C(=O)C2=C(O)[C@]3(O)C(=O)C(C(N)=O)=C(O)[C@@H](N(C)C)[C@@H]3[C@@H](O)[C@@H]21` [Doxycycline], for which the figures for the inhibition of growth at 1 µg/mL in data set [1] (setting [4]) and in data set [1] (setting [5]) were 9.15% and 1.95%, respectively. The compound also yielded a T.vaginalis_Absorbance_Rep1 in data set [3] of 0.879. The T.vaginalis_Absorbance_Rep2 in data set [3] was 0.647.
Consider `C=C1CC[C@H]2C(C)(C)CCC[C@]2(C)[C@H]1C[C@@]12C[C@H]3C(=O)N4CCC[C@H]4C(=O)N3[C@@H]1Nc1ccccc12` [Drimentine C], for which the inhibition of growth at 1 µg/mL was 10.4% in data set [1] (setting [4]) and 13.8% in data set [1] (setting [5]). Also, in data set [3], the T.vaginalis_Absorbance_Rep1 is 0.907. The T.vaginalis_Absorbance_Rep2 in data set [3] is listed as 0.85.
In the case of `Cc1cc(O)c2c(c1)C(=O)c1cc(O)cc(O)c1C2=O` [Emodin], the inhibition of growth at 1 µg/mL in data set [1] (setting [4]) worked out at 17.8%. Besides, the inhibition of growth at 1 µg/mL in data set [1] (setting [5]) is 12.6%. In data set [3], this compound had a T.vaginalis_Absorbance_Rep1 of 1.052 and a T.vaginalis_Absorbance_Rep2 of 0.831.
As for `CCc1c(Cl)c(O)c(Cl)c(O)c1C(=O)O[C@H]1[C@H](O)[C@H](OC)[C@H](OC/C2=C\C=C\C[C@H](O)/C(C)=C/[C@H](CC)[C@@H](O[C@@H]3OC(C)(C)[C@@H](OC(=O)C(C)C)[C@H](O)[C@@H]3O)/C(C)=C/C(C)=C/C[C@@H]([C@@H](C)O)OC2=O)O[C@@H]1C` [Fidaxomicin], in data set [1] (setting [4]), the inhibition of growth at 1 µg/mL was found to be 11.5%. Also, the inhibition of growth at 1 µg/mL in data set [1] (setting [5]) came out at 10.1%. In data set [3], this compound had a T.vaginalis_Absorbance_Rep1 of 0.922 and a T.vaginalis_Absorbance_Rep2 of 0.759.
`CS(=O)(=O)c1ccc([C@@H](O)[C@@H](CF)NC(=O)C(Cl)Cl)cc1` [Florfenicol]: the inhibition of growth at 1 µg/mL in data set [1] (setting [4]) came to 7.7%. In data set [1] (setting [5]), the inhibition of growth at 1 µg/mL amounted to 9.33%. For the same compound, in data set [3], the T.vaginalis_Absorbance_Rep1 is listed as 0.852 and the T.vaginalis_Absorbance_Rep2 came out at 0.749.
Turning to `CC(=O)O[C@H]1C[C@@]2(C)[C@@H](C[C@@H](O)[C@H]3[C@@]4(C)CC[C@@H](O)[C@@H](C)[C@@H]4CC[C@@]32C)/C1=C(\CCC=C(C)C)C(=O)O` [Fusidate sodium], the inhibition of growth at 1 µg/mL in data set [1] (setting [4]) turned out to be 4.26%. Also, in data set [1] (setting [5]), the inhibition of growth at 1 µg/mL was 1.6%. Moreover, in data set [3], the T.vaginalis_Absorbance_Rep1 was 0.786 and the T.vaginalis_Absorbance_Rep2 was 0.66.
The corresponding values for `COC1=C2C[C@@H](C)C[C@H](OC)[C@H](O)[C@@H](C)/C=C(\C)[C@H](OC(N)=O)[C@@H](OC)/C=C\C=C(/C)C(=O)NC(=CC1=O)C2=O` [Geldanamycin] are 13%, 14.1%, 0.958 and 0.854.
`COC1=CC(=O)C[C@@H](C)[C@]12Oc1c(Cl)c(OC)cc(OC)c1C2=O` [Griseofulvin]: in data set [1] (setting [4]), the inhibition of growth at 1 µg/mL turned out to be 12.4%. Moreover, in data set [1] (setting [5]), the inhibition of growth at 1 µg/mL was determined as 12.1%. In data set [3], this compound returned a T.vaginalis_Absorbance_Rep1 of 0.947 and a T.vaginalis_Absorbance_Rep2 of 0.823.
On to `CC(=O)O[C@H]1CC[C@@]2(C)[C@@H](CC[C@@H]3[C@@H]2CC(=O)[C@]2(C)[C@@H]4[C@H](C[C@@H]32)O[C@]2(CC[C@@H](C)CO2)[C@H]4C)C1` [Hecogenin acetate], for which the inhibition of growth at 1 µg/mL in data set [1] (setting [4]) stood at 10.4%; in data set [1] (setting [5]) it was 14.1%. The T.vaginalis_Absorbance_Rep1 in data set [3] is listed as 0.908. For the same compound, the T.vaginalis_Absorbance_Rep2 in data set [3] came to 0.854.
Consider `CC(=O)O[C@H]1C[C@@]2(C)[C@@H](CC[C@H]3[C@@]4(C)C=CC(=O)[C@@H](C)[C@@H]4[C@H](OC(C)=O)C(=O)[C@@]32C)/C1=C(\CCC=C(C)C)C(=O)O` [Helvolic acid], for which the inhibition of growth at 1 µg/mL in data set [1] (setting [4]) was 5.19%. Besides, the inhibition of growth at 1 µg/mL in data set [1] (setting [5]) is 10.6%. For the same compound, in data set [3], the T.vaginalis_Absorbance_Rep1 came out at 0.864 and the T.vaginalis_Absorbance_Rep2 came out at 0.811.
As to `CO[C@@]12[C@H](COC(N)=O)C3=C(C(=O)C(C)=C(N)C3=O)N1C[C@@H]1N[C@@H]12` [Mitomycin C], the inhibition of growth at 1 µg/mL came out at 11.5% in data set [1] (setting [4]) and 3.72% in data set [1] (setting [5]). The NFF_Activity entry in data set [2] (setting [6]) is “I (otherwise these were reported as inactive (I))”.
The corresponding values for `CC[C@H]1C[C@@H]2CC[C@@H](O2)[C@@H](C)C(=O)O[C@H](C)C[C@H]2CC[C@H](O2)[C@H](C)C(=O)O[C@@H](C)C[C@@H]2CC[C@@H](O2)[C@@H](C)C(=O)O[C@H](C)C[C@H]2CC[C@H](O2)[C@H](C)C(=O)O1` [Monactin] are 10%, 10.7% and “I (otherwise these were reported as inactive (I))”.
In the case of `C[C@H]1C(=O)O[C@@H]2CCN3CC=C(COC(=O)[C@](C)(O)[C@]1(C)O)[C@H]23` [Monocrotaline], the figures for the inhibition of growth at 1 µg/mL in data set [1] (setting [4]) and in data set [1] (setting [5]) were 8.98% and 13.2%, respectively. The NFF_Activity result in data set [2] (setting [6]) is “I (otherwise these were reported as inactive (I))”.
Regarding `CO/N=C1\C[C@]2(C[C@@H]3C[C@@H](C/C=C(\C)C[C@@H](C)/C=C/C=C4\CO[C@@H]5[C@H](O)C(C)=C[C@@H](C(=O)O3)[C@]45O)O2)O[C@H](/C(C)=C/C(C)C)[C@H]1C` [Moxidectin], the inhibition of growth at 1 µg/mL in data set [1] (setting [4]) stood at 9.23%; in data set [1] (setting [5]), 6.09%. Also, the NFF_Activity result in data set [2] (setting [6]) was “I (otherwise these were reported as inactive (I))”.
On the same counts, the results for `CCCCCCC(=O)CCCCCC/C=C/C[C@@H](O)[C@H](O)[C@@](N)(CO)C(=O)O` [Myriocin] are 10.9%, 15.1% and “I (otherwise these were reported as inactive (I))”.
Turning to `C[C@@H]1C[C@H]2CC[C@H](O2)[C@H](C)C(=O)O[C@@H](C)C[C@@H]2CC[C@@H](O2)[C@@H](C)C(=O)O[C@H](C)C[C@H]2CC[C@H](O2)[C@H](C)C(=O)O[C@@H](C)C[C@@H]2CC[C@@H](O2)[C@@H](C)C(=O)O1` [Nonactin], the inhibition of growth at 1 µg/mL in data set [1] (setting [4]) amounted to 11.6%; in data set [1] (setting [5]) it was 12.1%. In addition, in data set [2], the NFF_Activity entry is “I (key: active (A) compounds having >25% inhibitory activity; otherwise these were reported as inactive (I))”.
Turning to `Cn1c2ccccc2c(=O)c2c(O)cc3c(c21)C=CC(C)(C)O3` [Noracronycine], the inhibition of growth at 1 µg/mL came out at 8.76% in data set [1] (setting [4]) and 12.6% in data set [1] (setting [5]). Besides, the NFF_Activity entry in data set [2] (setting [6]) is “I (otherwise these were reported as inactive (I))”.
Turning to `Cc1cc(O)c(C=O)c2c1C(=O)Oc1c(C)c(O)c3c(c1O2)C(O)OC3=O` (stereo not shown) [Norstictic acid], the inhibition of growth at 1 µg/mL in data set [1] (setting [4]) came out at 13.7%; in data set [1] (setting [5]), 12.1%. Besides, in data set [2] (setting [6]), the NFF_Activity result is “I (otherwise these were reported as inactive (I))”.
As for `C=C(NC(=O)c1csc(-c2nc3c(cc2O)-c2nc(cs2)C(=O)NC(C(C)O)C(=O)N/C(=C\C)c2nc(cs2)C(=O)NC2CC(O)C(=O)OCc4cccc5[nH]c(c(C)c45)C(=O)SCC(NC(=O)c4csc2n4)c2nc-3cs2)n1)C(N)=O` (stereo not shown) [Nosiheptide], the inhibition of growth at 1 µg/mL came to 2.89% in data set [1] (setting [4]) and 6.03% in data set [1] (setting [5]). In addition, the NFF_Activity result in data set [2] (setting [6]) is “I (otherwise these were reported as inactive (I))”.
Turning to `C[C@@H]1Cc2c(Cl)cc(C(=O)N[C@@H](Cc3ccccc3)C(=O)O)c(O)c2C(=O)O1` [Ochratoxin A], the inhibition of growth at 1 µg/mL came out at 13% in data set [1] (setting [4]) and 11.6% in data set [1] (setting [5]). Besides, the NFF_Activity entry in data set [2] (setting [6]) was “I (otherwise these were reported as inactive (I))”.
The corresponding values for `CC[C@@H]1C=CC=CC[C@H](C)[C@@H](O)[C@@H](C)C(=O)[C@H](C)[C@@H](O)[C@H](C)C(=O)[C@H](C)[C@@H](O)[C@H](C)C=CC(=O)O[C@H]2[C@@H](C)[C@@H](CC1)O[C@@]1(CC[C@@H](C)[C@@H](C[C@H](C)O)O1)[C@@H]2C` [Oligomycin C] are 11.3%, 12.9% and “I (otherwise these were reported as inactive (I))”.
With `CC(C)=C[C@H]1C[C@H](C)[C@]2(CC[C@]3(C)C[C@H]4[C@H](C(=O)C[C@@]4(C)O)/C(C=O)=C\C[C@H]32)O1` [Ophiobolin A], the inhibition of growth at 1 µg/mL in data set [1] (setting [4]) came to 14.2%; in data set [1] (setting [5]) it was 13%. For the same compound, in data set [2] (setting [6]), the NFF_Activity entry was “A (active (A) compounds having >25% inhibitory activity)”.
For the compound `CC(C)=CCC[C@H](C)[C@H]1CC[C@]2(C)C[C@H]3[C@H](C(=O)C[C@@]3(C)O)/C(C=O)=C\C[C@@H]12` [Ophiobolin C], the values for the inhibition of growth at 1 µg/mL in data set [1] (setting [4]) and in data set [1] (setting [5]) were 13.1% and 12.7%, respectively. Also, in data set [2] (setting [6]), the NFF_Activity result is reported as “A (active (A) compounds having >25% inhibitory activity)”.
In the case of `O=C1Cc2ccccc2N1` [Oxindole], the inhibition of growth at 1 µg/mL in data set [1] (setting [4]) was 12.2%; in data set [1] (setting [5]) it was 14.4%. Moreover, the NFF_Activity entry in data set [2] (setting [6]) is “I (otherwise these were reported as inactive (I))”.
As to `CN1C(=O)[C@]23C[C@@H]4C(C)(C)[C@@]5(C[C@@]41CN2CC[C@@]3(C)O)C(=O)Nc1c5ccc2c1OC=CC(C)(C)O2` [Paraherquamide A], the inhibition of growth at 1 µg/mL turned out to be 15.8% in data set [1] (setting [4]) and 15.5% in data set [1] (setting [5]). Also, the NFF_Activity entry in data set [2] (setting [6]) was “I (otherwise these were reported as inactive (I))”.
The corresponding values for `CC(C)(O)[C@H]1O[C@H]2CC[C@@]3(C)[C@@](O)(CC[C@H]4Cc5c([nH]c6ccccc56)[C@@]43C)C2=CC1=O` [Paxilline] are 10.1%, 13.3% and “I (otherwise these were reported as inactive (I))”.
